Test results reported in PubChem BioAssay (NCI).
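Values below derive from 48-hour exposures of cells grown in 96-well plates, with endpoints linearly interpolated between the two concentrations bracketing the appropriate inhibition level. Abbreviation: GI50, concentration required for 50% inhibition of growth. TGI: concentration producing complete growth inhibition.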

How the values were obtained:
Assay in all cases: DTP human tumour cell line panel, 48 h
[1] = system: HOP-62 NSCLC
[2] = system: HCT-116 colon
[3] = system: NCI-H23 lung
[4] = system: PC-3 prostate
[5] = system: NCI-H460 lung
[6] = system: SK-MEL-5 melanoma
[7] = system: U251 CNS
[8] = system: COLO 205 colon
[9] = system: ACHN renal
[10] = system: SK-OV-3 ovarian

CC1(C)O[C@H]2OC(CO)C(OS(C)(=O)=O)[C@H]2O1 (stereo not given in full)
TGI [1]: > 100 µM | TGI [2]: > 100 µM | TGI [3]: > 100 µM | TGI [4]: > 100 µM | TGI [5]: > 100 µM | TGI [6]: > 100 µM | TGI [7]: > 100 µM | TGI [8]: > 100 µM | TGI [9]: > 100 µM

O=C(Cc1ccccc1)N=Nc1c(O)[nH]c2ccccc12
TGI [1]: > 100 µM | TGI [2]: > 100 µM | TGI [3]: > 100 µM | TGI [10]: > 100 µM | TGI [4]: > 100 µM | TGI [5]: > 100 µM | TGI [6]: > 100 µM | TGI [7]: > 100 µM | TGI [8]: > 100 µM | TGI [9]: > 100 µM

O=C(O)CN(CC(=O)O)Cc1ccn(-c2cccc(-n3ccc(CN(CC(=O)O)CC(=O)O)n3)n2)n1
TGI [1]: > 100 µM | TGI [2]: > 100 µM | TGI [3]: > 100 µM | TGI [10]: > 100 µM | TGI [4]: > 100 µM | TGI [5]: > 100 µM | TGI [6]: > 100 µM | TGI [7]: > 100 µM | TGI [8]: > 100 µM | TGI [9]: > 100 µM

COc1ccc(S(=O)(=O)Nc2ccc(-c3csc(N4C(=O)/C(=C/c5ccccc5)N=C4c4ccccc4)n3)cc2)cc1Cl
TGI [1]: > 100 µM | TGI [2]: > 100 µM | TGI [3]: 54.8 µM | TGI [10]: > 100 µM | TGI [4]: > 100 µM | TGI [5]: > 100 µM | TGI [6]: > 100 µM | TGI [7]: 78 µM | TGI [8]: > 100 µM | TGI [9]: > 100 µM

O=C1C2=C(CCCCC2)C2CCCCC12O (stereo not given)
TGI [1]: > 100 µM | TGI [2]: > 100 µM | TGI [3]: > 100 µM | TGI [10]: > 100 µM | TGI [5]: > 100 µM | TGI [7]: > 100 µM | TGI [8]: > 100 µM | TGI [9]: > 100 µM

COc1ccc(NCc2cnc3nc(N)nc(N)c3c2C)cc1
TGI [1]: > 100 µM | TGI [3]: > 100 µM | TGI [10]: > 100 µM | TGI [4]: > 100 µM | TGI [5]: > 100 µM | TGI [6]: > 100 µM | TGI [7]: > 100 µM | TGI [8]: > 100 µM | TGI [9]: > 100 µM

CC(=O)Nc1ccc(-c2nnc(SCC(=O)Nc3cccc([N+](=O)[O-])c3)o2)cc1
TGI [1]: 45.8 µM | TGI [2]: 27.4 µM | TGI [3]: 21.2 µM | TGI [10]: 24.5 µM | TGI [5]: 28.8 µM | TGI [6]: 27.1 µM | TGI [7]: 29.3 µM | TGI [8]: 33.8 µM | TGI [9]: 43.7 µM

COC12OC3CC4(C)C(=CC3OC(OC(C)C1O)C2O)CCC1C4CCC2(C)C(c3ccc(=O)oc3)CCC12O (stereo not given)
TGI [1]: 0.00311 µM | TGI [2]: 0.00193 µM | TGI [3]: 0.00177 µM | TGI [10]: 0.272 µM | TGI [4]: 0.00214 µM | TGI [5]: 0.00224 µM | TGI [6]: 0.00171 µM | TGI [7]: 0.00277 µM | TGI [9]: 0.00449 µM

CCCCCCCCCCCCCCCCCCOc1ccc(/C=C/C2=[N+](CCCl)CCO2)cc1
TGI [1]: > 100 µM | TGI [2]: > 100 µM | TGI [10]: > 100 µM | TGI [4]: > 100 µM | TGI [5]: > 100 µM | TGI [6]: > 100 µM | TGI [7]: > 100 µM | TGI [8]: > 100 µM | TGI [9]: > 100 µM

CNc1ncnc2c1nnn2C
TGI [1]: > 100 µM | TGI [2]: > 100 µM | TGI [3]: > 100 µM | TGI [10]: > 100 µM | TGI [4]: > 100 µM | TGI [6]: > 100 µM | TGI [7]: > 100 µM | TGI [8]: > 100 µM | TGI [9]: > 100 µM

C[C@H](CN1CC(=O)NC(=O)C1)N1CC(=O)NC(=O)C1
TGI [1]: > 100 µM | TGI [2]: > 100 µM | TGI [3]: > 100 µM | TGI [10]: > 100 µM | TGI [5]: > 100 µM | TGI [6]: > 100 µM | TGI [7]: > 100 µM | TGI [8]: > 72.8 µM

C=CCCC(On1c(-c2ccc(Cl)cc2)csc1=S)c1ccccc1 (stereo not given)
TGI [1]: > 100 µM | TGI [2]: > 100 µM | TGI [3]: > 100 µM | TGI [4]: > 100 µM | TGI [6]: 64.8 µM | TGI [7]: > 100 µM | TGI [8]: > 100 µM | TGI [9]: > 100 µM

NC(=O)CCC(NC(=O)c1cccc2c(=O)c3ccccc3[nH]c12)C(=O)O (stereo not given)
TGI [1]: > 100 µM | TGI [2]: > 100 µM | TGI [3]: > 100 µM | TGI [10]: > 100 µM | TGI [4]: > 100 µM | TGI [6]: > 100 µM | TGI [7]: > 100 µM | TGI [8]: > 100 µM | TGI [9]: > 100 µM

COc1cc2c(cc1OC(=O)c1cc3ccccc3[nH]1)N=C[C@@H]1CCCN1C2=O
TGI [1]: 4.36 µM | TGI [2]: 3.19 µM | TGI [10]: 15.2 µM | TGI [4]: 6.93 µM | TGI [5]: 8.65 µM | TGI [6]: 0.335 µM | TGI [7]: 3.52 µM | TGI [8]: 0.405 µM | TGI [9]: 13 µM

c1ccc(CCN2CCN=C2Cc2ccccc2)cc1
TGI [1]: > 100 µM | TGI [2]: > 100 µM | TGI [3]: > 100 µM | TGI [10]: > 100 µM | TGI [5]: > 100 µM | TGI [6]: > 100 µM | TGI [7]: > 100 µM | TGI [8]: > 100 µM | TGI [9]: > 100 µM

O=C1OC(c2ccc(Cl)cc2)(c2ccc(Cl)cc2)c2c1ccc1ccccc21
TGI [3]: > 100 µM | TGI [10]: > 100 µM | TGI [5]: > 100 µM | TGI [6]: > 100 µM | TGI [7]: > 100 µM | TGI [8]: > 100 µM | TGI [9]: > 100 µM

Cn1cc(-c2nc(-c3c[nH]c4ccncc34)cs2)c2cc(F)ccc21
GI50 [1]: 1.73 µM | TGI [1]: 3.3 µM | GI50 [2]: 1.63 µM | TGI [2]: 3.28 µM | GI50 [3]: 1.72 µM | TGI [3]: 3.25 µM | GI50 [10]: 1.92 µM | TGI [10]: 3.37 µM | GI50 [4]: 1.63 µM | TGI [4]: 3.17 µM | GI50 [5]: 1.77 µM | TGI [5]: 3.42 µM | GI50 [6]: 1.65 µM | TGI [6]: 3.03 µM | GI50 [7]: 1.8 µM | TGI [7]: 3.29 µM | GI50 [9]: 1.74 µM | TGI [9]: 3.12 µM

CCCCCCCC(=O)OCC(C[As](=O)(O)O)OC(=O)CCCCCCC (stereo not given)
TGI [1]: 34.5 µM | TGI [2]: 30.3 µM | TGI [3]: 28.7 µM | TGI [10]: 29.1 µM | TGI [6]: 32 µM | TGI [7]: 28.2 µM | TGI [8]: 27.6 µM | TGI [9]: 30.6 µM

COc1ccc(-c2nnc(-c3ccncc3)o2)cc1
TGI [1]: > 100 µM | TGI [2]: > 100 µM | TGI [3]: > 100 µM | TGI [10]: > 100 µM | TGI [4]: > 100 µM | TGI [6]: > 100 µM | TGI [7]: > 100 µM | TGI [8]: > 100 µM | TGI [9]: > 100 µM

Nc1nn(CC(O)CO)c(=O)s1 (stereo not given)
TGI [1]: > 100 µM | TGI [2]: > 100 µM | TGI [3]: > 100 µM | TGI [10]: > 100 µM | TGI [5]: > 100 µM | TGI [6]: > 100 µM | TGI [7]: > 100 µM | TGI [8]: > 100 µM | TGI [9]: > 100 µM

COC(=O)c1c(O)ccc2c1c1c(n2Cc2ccccc2OC)C(=O)c2ccccc2C1
TGI [1]: > 100 µM | TGI [2]: > 100 µM | TGI [3]: > 100 µM | TGI [10]: > 100 µM | TGI [4]: 78.8 µM | TGI [5]: > 100 µM | TGI [6]: > 100 µM | TGI [7]: > 100 µM | TGI [8]: 30 µM
